Source: ChEMBL document CHEMBL1909046, “DrugMatrix in vitro pharmacology data”

Key:
[1] = DRUGMATRIX: Serotonin (5-Hydroxytryptamine) 5-HT3 radioligand binding (ligand: [3H] GR-65630); type: cell membranes, Membrane; details: hek293; Not Active = under 50% inhibition at 10 µM
[2] = target: Vasopressin V1a receptor (Homo sapiens, UniProt P37288); type: cell membranes, Membrane; details: hek293; also: in other assays of this panel Not Active means under 50% inhibition at 10 µM
[3] = DRUGMATRIX: Glutamate, AMPA radioligand binding (ligand: [3H] AMPA); type: cell membranes, Rattus norvegicus, Wistar, Cerebral cortex, Membrane; details: Not Active = under 50% inhibition at 10 µM
[4] = target: Matrix metalloproteinase-9 (Homo sapiens, UniProt P14780); assay: biochemical; type: cell-based;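 also: inhibition of isolated MMP-9 enzyme activity toward a synthetic peptide substrate, from the DrugMatrix protease screening panel; in other assays of this panel Not Active means under 50% inhibition at 10 µM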
Chain of Matrix metalloproteinase-9 (P14780 whole entry): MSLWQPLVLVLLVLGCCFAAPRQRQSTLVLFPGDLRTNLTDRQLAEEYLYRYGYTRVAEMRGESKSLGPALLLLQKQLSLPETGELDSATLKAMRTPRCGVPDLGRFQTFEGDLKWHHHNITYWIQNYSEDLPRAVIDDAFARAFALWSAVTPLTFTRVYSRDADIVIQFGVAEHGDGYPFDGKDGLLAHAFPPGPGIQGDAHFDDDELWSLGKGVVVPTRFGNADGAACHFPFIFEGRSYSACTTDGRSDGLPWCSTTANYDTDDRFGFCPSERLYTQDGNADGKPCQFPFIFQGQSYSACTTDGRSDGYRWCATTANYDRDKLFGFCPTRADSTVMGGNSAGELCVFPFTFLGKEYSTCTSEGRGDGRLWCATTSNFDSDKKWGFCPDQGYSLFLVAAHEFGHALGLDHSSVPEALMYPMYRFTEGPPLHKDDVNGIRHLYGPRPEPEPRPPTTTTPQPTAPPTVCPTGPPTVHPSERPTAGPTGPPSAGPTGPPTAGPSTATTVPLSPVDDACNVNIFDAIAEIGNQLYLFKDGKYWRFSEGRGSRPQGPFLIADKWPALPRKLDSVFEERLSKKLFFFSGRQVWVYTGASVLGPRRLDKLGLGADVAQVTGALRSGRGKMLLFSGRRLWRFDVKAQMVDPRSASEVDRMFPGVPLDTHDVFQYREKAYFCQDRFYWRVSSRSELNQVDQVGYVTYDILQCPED

[5] = target: Sodium-dependent noradrenaline transporter (Homo sapiens, UniProt P23975); assay: DRUGMATRIX: Norepinephrine Transporter radioligand binding (ligand: [125I] RTI-55); type: cell membranes, MDCK, Membrane; details: Not Active = under 50% inhibition at 10 µM
Chain of Sodium-dependent noradrenaline transporter (P23975 whole entry): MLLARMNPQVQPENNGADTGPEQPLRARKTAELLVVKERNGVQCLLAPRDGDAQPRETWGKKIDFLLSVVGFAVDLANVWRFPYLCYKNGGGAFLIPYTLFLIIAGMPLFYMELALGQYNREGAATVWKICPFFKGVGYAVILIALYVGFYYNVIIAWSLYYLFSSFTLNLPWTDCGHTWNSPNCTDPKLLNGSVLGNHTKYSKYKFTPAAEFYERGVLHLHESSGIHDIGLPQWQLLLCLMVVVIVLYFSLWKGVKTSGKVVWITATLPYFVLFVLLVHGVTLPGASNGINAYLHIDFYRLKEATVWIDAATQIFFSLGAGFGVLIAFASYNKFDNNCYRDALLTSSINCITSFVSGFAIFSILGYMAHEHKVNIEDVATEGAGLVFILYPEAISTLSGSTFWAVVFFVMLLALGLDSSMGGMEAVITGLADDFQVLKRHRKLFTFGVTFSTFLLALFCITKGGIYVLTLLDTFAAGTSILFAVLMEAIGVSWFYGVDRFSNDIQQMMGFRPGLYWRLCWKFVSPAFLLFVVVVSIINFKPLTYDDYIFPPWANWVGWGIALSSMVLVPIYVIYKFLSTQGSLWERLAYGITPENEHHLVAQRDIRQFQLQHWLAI

[6] = target: T1, Type-2 angiotensin II receptor (Homo sapiens, UniProt P50052); type: cell-based; details: cho-k1; also: in other assays of this panel Not Active means under 50% inhibition at 10 µM
T1 sequence (P50052 whole entry): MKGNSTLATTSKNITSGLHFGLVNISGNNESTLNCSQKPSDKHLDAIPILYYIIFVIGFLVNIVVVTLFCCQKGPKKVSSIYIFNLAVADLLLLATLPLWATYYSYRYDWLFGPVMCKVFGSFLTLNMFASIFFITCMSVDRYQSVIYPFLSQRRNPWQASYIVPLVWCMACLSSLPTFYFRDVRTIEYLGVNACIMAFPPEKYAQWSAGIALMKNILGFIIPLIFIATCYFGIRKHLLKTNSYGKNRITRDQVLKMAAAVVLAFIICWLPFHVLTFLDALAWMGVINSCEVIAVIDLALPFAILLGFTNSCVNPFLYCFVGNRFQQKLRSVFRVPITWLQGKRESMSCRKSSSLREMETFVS

[7] = DRUGMATRIX: beta-Lactamase enzyme inhibition (substrate: Nitrocefin); parameters: species or system Bacillus cereus; details: Not Active = under 50% inhibition at 10 µM

Chain of Vasopressin V1a receptor (P37288 whole entry): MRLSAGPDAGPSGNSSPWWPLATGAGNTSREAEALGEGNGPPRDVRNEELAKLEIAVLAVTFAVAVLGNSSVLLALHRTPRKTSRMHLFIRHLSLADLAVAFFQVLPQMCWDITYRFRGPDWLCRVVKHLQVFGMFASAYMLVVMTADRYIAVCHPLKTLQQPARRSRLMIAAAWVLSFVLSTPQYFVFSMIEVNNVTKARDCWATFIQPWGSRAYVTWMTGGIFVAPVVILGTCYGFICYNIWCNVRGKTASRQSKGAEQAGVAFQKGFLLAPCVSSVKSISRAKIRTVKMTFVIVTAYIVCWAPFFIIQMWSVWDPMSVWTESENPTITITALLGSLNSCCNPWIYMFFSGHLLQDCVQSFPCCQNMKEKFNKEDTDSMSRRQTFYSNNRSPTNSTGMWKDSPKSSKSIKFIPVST

SMILES	IC50 [1]	Ki [1]	IC50 [2]	IC50 [3]	Ki [3]	IC50 [4]	IC50 ([5]; mdck)	IC50 [6]	IC50 [7]	Ki [7]	IC50 ([5]; read-out: IC50) [nM]	Ki ([5]; read-out: Ki) [nM]
CC1(C)O[C@@H]2C[C@H]3[C@@H]4C[C@H](F)C5=CC(=O)C=C[C@]5(C)[C@@]4(F)[C@@H](O)C[C@]3(C)[C@]2(C(=O)CO)O1 [FLUOCINOLONE ACETONIDE]	Not Active	Not Active	Not Active	Not Active	Not Active	Not Active	Not Active	Not Active	Not Active	Not Active	–	–
CC1(C)O[C@@H]2C[C@H]3[C@@H]4C[C@H](F)C5=CC(=O)CC[C@]5(C)[C@H]4[C@@H](O)C[C@]3(C)[C@]2(C(=O)CO)O1 [FLURANDRENOLIDE]	Not Active	Not Active	Not Active	Not Active	Not Active	Not Active	Not Active	Not Active	Not Active	Not Active	–	–
CN(C)c1ccc(C(=C2C=CC(=[N+](C)C)C=C2)c2ccc(N(C)C)cc2)cc1.[Cl-] [GENTIAN VIOLET]	Not Active	Not Active	Not Active	Not Active	Not Active	Not Active	Not Active	Not Active	Not Active	Not Active	–	–
Cc1ccc(S(=O)(=O)NC(=O)NN2CC3CCCC3C2)cc1 (stereo unspecified) [GLICLAZIDE]	Not Active	Not Active	Not Active	Not Active	Not Active	Not Active	Not Active	Not Active	Not Active	Not Active	–	–
NC(=O)NO [HYDROXYUREA]	Not Active	Not Active	Not Active	Not Active	Not Active	Not Active	Not Active	Not Active	Not Active	Not Active	–	–
CC(C)Cc1ccc(C(C)C(=O)O)cc1 (stereo unspecified) [IBUPROFEN]	Not Active	Not Active	Not Active	Not Active	Not Active	Not Active	Not Active	Not Active	Not Active	Not Active	–	–
COc1ccc2c(c1)c(CC(=O)O)c(C)n2C(=O)c1ccc(Cl)cc1 [INDOMETHACIN]	Not Active	Not Active	Not Active	Not Active	Not Active	Not Active	Not Active	Not Active	Not Active	Not Active	–	–
CCc1c2c(nc3ccc(OC(=O)N4CCC(N5CCCCC5)CC4)cc13)-c1cc3c(c(=O)n1C2)COC(=O)[C@]3(O)CC [IRINOTECAN]	Not Active	Not Active	Not Active	Not Active	Not Active	Not Active	Not Active	Not Active	Not Active	Not Active	–	–
CC(C(=O)O)c1cccc(C(=O)c2ccccc2)c1 (stereo unspecified) [KETOPROFEN]	Not Active	Not Active	Not Active	Not Active	Not Active	Not Active	Not Active	Not Active	Not Active	Not Active	–	–
Nc1ccn([C@@H]2CS[C@H](CO)O2)c(=O)n1 [LAMIVUDINE]	Not Active	Not Active	Not Active	Not Active	Not Active	Not Active	Not Active	Not Active	Not Active	Not Active	–	–
O=S(=O)([O-])CCS.[Na+] [MESNA]	Not Active	Not Active	Not Active	Not Active	Not Active	Not Active	Not Active	Not Active	Not Active	Not Active	–	–
C#C[C@]1(O)CC[C@H]2[C@@H]3CCc4cc(OC)ccc4[C@H]3CC[C@@]21C [MESTRANOL]	Not Active	Not Active	Not Active	Not Active	Not Active	Not Active	–	Not Active	Not Active	Not Active	1380	1370
CC(=O)Nc1cccc(O)c1 [METACETAMOL]	Not Active	Not Active	Not Active	Not Active	Not Active	Not Active	Not Active	Not Active	Not Active	Not Active	–	–
